Experimental data reported in ChEMBL document CHEMBL3044829, “New carbodithioate derivatives: synthesis, characterization, and in vitro antibacterial, antifungal, antitubercular, and antimalarial activity” (Med Chem Res, 2013).
Values after ≈ are worked out from the molar mass of the structure shown.

Tests used:
[1] = tested on: Bacillus subtilis; assay: Antimicrobial activity against Bacillus subtilis MTCC 441 assessed as growth inhibition by broth microdilution method; format: functional
[2] = tested on: Streptococcus pyogenes; assay: Antimicrobial activity against Streptococcus pyogenes MTCC 442 assessed as growth inhibition by broth microdilution method; format: functional
[3] = tested on: Aspergillus niger; assay: Antimicrobial activity against Aspergillus niger MTCC 282 assessed as growth inhibition by broth microdilution method; format: functional
[4] = tested on: Mycobacterium tuberculosis; assay: Antitubercular activity against Mycobacterium tuberculosis H37Rv MTCC 200 assessed as growth inhibition by BACTEC MGIT method; format: functional
[5] = tested on: Plasmodium falciparum; assay: Antimalarial activity against chloroquine-sensitive Plasmodium falciparum 3D7 assessed as inhibition of complete maturation into schizonts after 40 hr; format: functional; details: 3D7, 40 h
[6] = tested on: Escherichia coli; assay: Antimicrobial activity against Escherichia coli MTCC 443 assessed as growth inhibition by broth microdilution method; format: functional
[7] = tested on: Mycobacterium tuberculosis; assay: Antitubercular activity against Mycobacterium tuberculosis H37Rv MTCC 200 assessed as growth inhibition by L.J. MIC method; format: functional
[8] = tested on: Klebsiella pneumoniae; assay: Antimicrobial activity against Klebsiella pneumoniae MTCC 109 assessed as growth inhibition by broth microdilution method; format: functional
[9] = tested on: Staphylococcus aureus; assay: Antimicrobial activity against Staphylococcus aureus MTCC 96 assessed as growth inhibition by broth microdilution method; format: functional
[10] = tested on: Mycobacterium tuberculosis; assay: Antitubercular activity against Mycobacterium tuberculosis H37Rv MTCC 200 assessed as growth inhibition at MIC by L.J. MIC method; format: functional
[11] = tested on: Pseudomonas aeruginosa; assay: Antimicrobial activity against Pseudomonas aeruginosa MTCC 1688 assessed as growth inhibition by broth microdilution method; format: functional
[12] = tested on: Vero; assay: Cytotoxicity against Chlorocebus aethiops (African green monkey) Vero cells assessed as inhibition of cell viability at equal to and greater than MIC for Mycobacterium tuberculosis H37Rv after 72 hr by MTT assay; format: cell-based; details: chlorocebus sabaeus
[13] = tested on: Aspergillus clavatus; assay: Antimicrobial activity against Aspergillus clavatus MTCC 1323 assessed as growth inhibition by broth microdilution method; format: functional
[14] = tested on: Candida albicans; assay: Antimicrobial activity against Candida albicans MTCC 227 assessed as growth inhibition by broth microdilution method; format: functional
[15] = tested on: Mycobacterium tuberculosis; assay: Antitubercular activity against Mycobacterium tuberculosis H37Rv MTCC 200 assessed as growth inhibition at 6.25 ug/ml by BACTEC MGIT method; format: functional

Compound	MIC99 [1]	MIC99 [2]	MIC99 [3]	MIC [4]	MIC [5]	MIC99 [6]	MIC [7]	MIC99 [8]	MIC99 [9]	inhibition (Growth inhibition) [10]	MIC99 [11]	Activity [12]	MIC99 [13]	MIC99 [14]	inhibition at 6.25 µg/mL [15]
O=C1C(=O)N(CCCSC(=S)N2CCN(c3ccc(Cl)c(Cl)c3)CC2)c2ccc(Br)cc21	250 µg/mL	100 µg/mL	100 µg/mL	6.25 µg/mL (≈ 10.9 µM)	0.25 µg/mL (≈ 0.436 µM)	200 µg/mL	100 µg/mL (≈ 174 µM)	250 µg/mL	200 µg/mL	94%	100 µg/mL	Non-toxic	500 µg/mL	250 µg/mL	99%
O=C1C(=O)N(CCCSC(=S)N2CCN(c3ccc(Cl)c(Cl)c3)CC2)c2ccc(F)cc21	500 µg/mL	250 µg/mL	200 µg/mL	6.25 µg/mL (≈ 12.2 µM)	0.092 µg/mL (≈ 0.18 µM)	250 µg/mL	6.25 µg/mL (≈ 12.2 µM)	100 µg/mL	500 µg/mL	98%	250 µg/mL	Non-toxic	250 µg/mL	500 µg/mL	99%
O=C1C(=O)N(CCSC(=S)N2CCN(c3ccc(Cl)c(Cl)c3)CC2)c2ccc(Br)cc21	250 µg/mL	62.5 µg/mL	200 µg/mL	6.25 µg/mL (≈ 11.2 µM)	0.052 µg/mL (≈ 0.093 µM)	100 µg/mL	6.15 µg/mL (≈ 11 µM)	250 µg/mL	250 µg/mL	99%	62.5 µg/mL	Non-toxic	500 µg/mL	200 µg/mL	99%
O=C(O)c1cn(C2CC2)c2cc(N3CCNCC3)c(F)cc2c1=O [CIPROFLOXACIN]	≤ 50 µg/mL	≤ 50 µg/mL				≤ 25 µg/mL		≤ 25 µg/mL	≤ 25 µg/mL		≤ 25 µg/mL				
O=C1C(=O)N(CCCSC(=S)N2CCN(c3ccc(Cl)c(Cl)c3)CC2)c2ccc([N+](=O)[O-])cc21	250 µg/mL	250 µg/mL	250 µg/mL	6.25 µg/mL (≈ 11.6 µM)	0.5 µg/mL (≈ 0.927 µM)	100 µg/mL	100 µg/mL (≈ 185 µM)	100 µg/mL	500 µg/mL	96%	200 µg/mL	Non-toxic	200 µg/mL	500 µg/mL	99%
O=C1C(=O)N(CCCSC(=S)N2CCN(c3ccc(Cl)c(Cl)c3)CC2)c2ccccc21	100 µg/mL	500 µg/mL	500 µg/mL	> 6.25 µg/mL	0.089 µg/mL (≈ 0.18 µM)	500 µg/mL	200 µg/mL (≈ 404 µM)	500 µg/mL	500 µg/mL	97%	200 µg/mL	Non-toxic	> 1000 µg/mL	> 1000 µg/mL	96%
CC[C@@H](CO)NCCN[C@@H](CC)CO [ETHAMBUTOL]				3.12 µg/mL (≈ 15.3 µM)											99%
O=C1C(=O)N(CCSC(=S)N2CCN(c3ccc(Cl)c(Cl)c3)CC2)c2ccccc21	200 µg/mL	100 µg/mL	500 µg/mL	> 6.25 µg/mL	0.25 µg/mL (≈ 0.52 µM)	500 µg/mL	250 µg/mL (≈ 520 µM)	500 µg/mL	250 µg/mL	87%	100 µg/mL	Non-toxic	500 µg/mL	> 1000 µg/mL	92%
NNC(=O)c1ccncc1 [ISONIAZID]				0.2 µg/mL (≈ 1.46 µM)											
CCN(CC)CCCC(C)Nc1ccnc2cc(Cl)ccc12 (configuration not stated) [CHLOROQUINE]					0.125 µg/mL (≈ 0.391 µM)										
CC1(C)S[C@@H]2[C@H](NC(=O)[C@H](N)c3ccccc3)C(=O)N2[C@H]1C(=O)O [AMPICILLIN]	100 µg/mL	100 µg/mL				100 µg/mL		100 µg/mL	250 µg/mL		100 µg/mL				
O=C1C(=O)N(CCSC(=S)N2CCN(c3ccc(Cl)c(Cl)c3)CC2)c2ccc(Cl)cc21	100 µg/mL	250 µg/mL	> 1000 µg/mL	> 6.25 µg/mL	0.061 µg/mL (≈ 0.118 µM)	500 µg/mL	100 µg/mL (≈ 194 µM)	250 µg/mL	500 µg/mL	96%	250 µg/mL	Non-toxic	500 µg/mL	> 1000 µg/mL	98%
NYSTATIN			100 µg/mL										100 µg/mL	100 µg/mL	
O=C1C(=O)N(CCCSC(=S)N2CCN(c3ccc(Cl)c(Cl)c3)CC2)c2ccc(Cl)cc21	500 µg/mL	500 µg/mL	> 1000 µg/mL	> 6.25 µg/mL	0.2 µg/mL (≈ 0.378 µM)	200 µg/mL	250 µg/mL (≈ 473 µM)	500 µg/mL	500 µg/mL	92%	250 µg/mL	Non-toxic	> 1000 µg/mL	500 µg/mL	91%
CCn1cc(C(=O)O)c(=O)c2cc(F)c(N3CCNCC3)cc21 [NORFLOXACIN]	≤ 10 µg/mL	≤ 10 µg/mL				≤ 10 µg/mL		≤ 10 µg/mL	≤ 10 µg/mL		≤ 10 µg/mL				
COC1=CC(=O)C[C@@H](C)[C@]12Oc1c(Cl)c(OC)cc(OC)c1C2=O [GRISEOFULVIN]			100 µg/mL										100 µg/mL	500 µg/mL	
O=C1C(=O)N(CCSC(=S)N2CCN(c3ccc(Cl)c(Cl)c3)CC2)c2ccc(F)cc21	200 µg/mL	62.5 µg/mL	100 µg/mL	6.25 µg/mL (≈ 12.5 µM)	0.043 µg/mL (≈ 0.0863 µM)	62.5 µg/mL	3.1 µg/mL (≈ 6.22 µM)	62.5 µg/mL	100 µg/mL	99%	100 µg/mL	Non-toxic	100 µg/mL	100 µg/mL	99%
CO[C@H]1/C=C/O[C@@]2(C)Oc3c(C)c(O)c4c(O)c(c(/C=N/N5CCN(C)CC5)c(O)c4c3C2=O)NC(=O)/C(C)=C\C=C\[C@H](C)[C@H](O)[C@@H](C)[C@@H](O)[C@@H](C)[C@H](OC(C)=O)[C@@H]1C [RIFAMPIN]				0.25 µg/mL (≈ 0.304 µM)											99%
S=C(SSC(=S)N1CCN(c2ccc(Cl)c(Cl)c2)CC1)N1CCN(c2ccc(Cl)c(Cl)c2)CC1	100 µg/mL	62.5 µg/mL	100 µg/mL	6.25 µg/mL (≈ 10.2 µM)	0.25 µg/mL (≈ 0.408 µM)	100 µg/mL	6.25 µg/mL (≈ 10.2 µM)	62.5 µg/mL	200 µg/mL	98%	100 µg/mL	Non-toxic	100 µg/mL	200 µg/mL	99%
NC(=O)c1cnccn1 [PYRAZINAMIDE]				6.25 µg/mL (≈ 50.8 µM)											99%
